Experiments:
[1] = test system: Daphnia magna; experiment: 48 h LC50 (-log10 mol/L); higher = more toxic
[2] = test system: Tetrahymena pyriformis; experiment: 48 h IGC50 (-log10 mol/L); higher = more toxic
[3] = test system: Pimephales promelas; experiment: 96 h LC50 (-log10 mol/L); higher = more toxic

SMILES	48 h LC50 (-log10 mol/L) [1]	48 h IGC50 (-log10 mol/L) [2]	96 h LC50 (-log10 mol/L) [3]
CNC(=S)NC	3.83	1.89	–
Oc1c(Cl)cc(Cl)c(Cl)c1Cl	6.11	–	5.35
CCOC(=O)CC	2.83	2.06	–
Cc1ccc([N+](=O)[O-])cc1	4.01	–	3.44
Clc1cccc(-c2ccccc2)c1	5.64	–	4.38
S=C=Nc1ccc(N=C=S)cc1	6.4	6.35	–
O=Cc1ccccc1	3.98	2.8	–
c1ccc2[nH]ccc2c1	5.07	3.21	–
Clc1ccc(C(c2ccc(Cl)cc2)C(Cl)(Cl)Cl)cc1	8.27	–	7.27
C=C(C)[C@H]1Cc2c(ccc3c2O[C@@H]2COc4cc(OC)c(OC)cc4[C@@H]2C3=O)O1	8.03	–	7.82
CC1(C)C(C=C(Cl)Cl)C1C(=O)OC(C#N)c1ccc(F)c(Oc2ccccc2)c1 (stereo not drawn)	9.13	–	8.6
ClCC(Cl)CCl	3.65	–	3.41
CC1(C)[C@H](C=C2CCCC2)[C@H]1C(=O)OCc1coc(Cc2ccccc2)c1	8.16	–	8.57
CC(C)c1ccc2c(c1)CC[C@H]1[C@](C)(C(=O)O)CCC[C@]21C	4.56	–	4.97
CCNc1nc(Cl)nc(NC(C)C)n1	3.6	–	4.16
CC=O	0.55	–	3.08
NC(=O)c1c(Cl)cccc1Cl	2.35	–	2.61
CC(Cl)CCl (stereo not drawn)	3.34	–	2.93
ClCC(Cl)Cl	3.49	–	3.21
CCCCN=C=S	5.43	4.72	–
c1ccsc1	2.42	1.56	–
CCCCCCCCn1sccc1=O	6.07	–	6.18
Oc1ccc(-c2ccccc2)cc1	4.67	4.39	–
O=C1C2(Cl)C3(Cl)C4(Cl)C(Cl)(Cl)C5(Cl)C3(Cl)C1(Cl)C5(Cl)C24Cl (stereo not drawn)	6.39	–	6.11
O=C(Nc1ccc(Cl)cc1)Nc1ccc(Cl)c(Cl)c1	7.48	–	6.54
ClC(Cl)C(Cl)(Cl)Cl	4.19	–	4.43

SMILES	48 h LC50 (-log10 mol/L) [1]	48 h IGC50 (-log10 mol/L) [2]	96 h LC50 (-log10 mol/L) [3]
Cc1ccc(C)cc1	3.52	3.25	–
Cc1ccc2ccccc2c1	4.98	4.08	–
c1ccc2c(c1)-c1cccc3cccc-2c13	6.28	–	6.77
O=C(O)CNCP(=O)(O)O	3.91	–	4.57
Oc1c(Cl)c(Cl)cc(Cl)c1Cl	5.61	5.22	–
O=P(O)(O)CCCl	3.04	–	3.05
CCOP(=S)(OCC)SCSC(C)(C)C	8.21	–	6.81
Nc1c(Cl)c(Cl)nc(C(=O)O)c1Cl	3.64	–	3.64
C=CC#N	3.78	–	3.57
ClCCl	2.66	–	2.42
O=Cc1ccc(O)c(O)c1O	3.67	3	–
CC(=O)Nc1ccc(O)cc1	4.22	2.18	–
ClC(Cl)(Cl)C(Cl)(Cl)Cl	4.93	–	5.24
COP(=S)(OC)Oc1ccc(SC)c(C)c1	6.79	–	4.94
NC(N)=S	3.88	1.68	–
O=[N+]([O-])OCC(CO[N+](=O)[O-])O[N+](=O)[O-]	3.85	–	4.92
CCC(=O)O	3.17	2.49	–
S=C=NCCc1ccccc1	6.1	5.54	–
Nc1cc(Cl)ccc1Cl	4.74	3.58	–
c1ccncc1	1.81	1.68	–
O=P(Oc1ccccc1)(Oc1ccccc1)Oc1ccccc1	5.51	4.81	–
OCCCl	2.58	1.58	–
S=C=NCc1ccccc1	6.54	5.74	–
CCCCC(CC)C(=O)O (stereo not drawn)	3.08	3.08	–
CC(C)c1ccccc1	3.77	3.69	–
O=[N+]([O-])c1ccc(O)cc1	4.02	4.42	–

SMILES	48 h LC50 (-log10 mol/L) [1]	48 h IGC50 (-log10 mol/L) [2]	96 h LC50 (-log10 mol/L) [3]
CCCCNC(N)=S	3.85	2.81	–
Cc1c(Cl)cccc1[N+](=O)[O-]	4.61	3.68	–
Cc1ccc(O)c(C)c1	4.76	3.14	–
O=C(O)c1ccccc1O	3.07	2.49	–
O=[N+]([O-])c1cc(Cl)cc(Cl)c1	4.43	4.13	–
Cc1ccccc1N	5.31	2.84	–
CN(C)c1ccccc1	4.38	3.28	–
C=C1C[C@]23C[C@@]1(O)CC[C@H]2[C@@]12C=C[C@H](O)[C@@](C)(C(=O)O1)[C@H]2[C@@H]3C(=O)O	4.19	–	–
CC1(C)[C@@H]2CC[C@@]1(C)[C@H](OC(=O)CSC#N)C2	6.47	–	–
Cc1cc(Cl)ccc1O	5.69	3.7	–
CCNC(N)=S	3.94	1.87	–
COc1ccccc1	3.43	–	–
c1cc2ccc3cccc4ccc(c1)c2c34	6.17	–	–
Cc1c(OCC(F)(F)F)ccnc1CS(=O)c1nc2ccccc2[nH]1 (stereo not drawn)	4.22	–	–
CC(=O)OCC(CCn1cnc2cnc(N)nc21)COC(C)=O	2.59	–	–
Cc1ccc(Cl)cc1	4.93	–	–
C[C@]12C/C(=C/O)C(=O)C[C@@H]1CC[C@@H]1[C@@H]2CC[C@@]2(C)[C@H]1CC[C@]2(C)O	4.54	–	–
CCOP(=O)(OCC)OC(=CCl)c1ccc(Cl)cc1Cl	6.56	–	–
CNC(N)=S	3.98	1.63	–
CO/N=C(/C(=O)OC)c1ccccc1CO/N=C(\C)c1cccc(C(F)(F)F)c1	5.74	–	–
O=S1(=O)c2ccccc2-c2ccccc21	4.57	–	–
Cc1ccc([N+](=O)[O-])cc1C	3.98	3.59	–
COc1ccccc1OCCNCC(O)COc1cccc2[nH]c3ccccc3c12 (stereo not drawn)	5.13	–	–
CC(C)NCC(O)COc1cccc2[nH]c3ccccc3c12 (stereo not drawn)	4.3	–	–
Nc1ccc(Cl)cc1Cl	5.43	3.56	–
CCCCC(CC)COP(=O)(Oc1ccccc1)Oc1ccccc1 (stereo not drawn)	6.38	–	–

SMILES	48 h LC50 (-log10 mol/L) [1]	48 h IGC50 (-log10 mol/L) [2]	96 h LC50 (-log10 mol/L) [3]
c1ccc2c(c1)oc1ccccc12	5	4.42	–
CC(C)C1OCC=CCO1	2.27	–	–
CCOC(C)=O	2.09	1.7	–
Nc1nc(N)c2nc(-c3ccccc3)c(N)nc2n1	4.4	–	–
O=C(N=C=S)c1ccccc1	4.93	3.1	–
NC(=O)N/N=C/c1ccc([N+](=O)[O-])o1	3.84	–	–
O[C@@H](CS)[C@@H](O)CS	3.76	–	–
O=[N+]([O-])c1ccc(Oc2c(Cl)cc(Cl)cc2Cl)cc1	5.88	–	–
COC(=O)Nc1cccc(OC(=O)Nc2cccc(C)c2)c1	4.65	–	–
ClC1=C(Cl)[C@]2(Cl)[C@@H]3[C@@H](Cl)[C@H]4O[C@H]4[C@@H]3[C@@]1(Cl)C2(Cl)Cl	6.21	–	–
c1ccc2sc(SSc3nc4ccccc4s3)nc2c1	3.62	–	–
O=C(O)/C=C\C(=O)O	2.76	–	–
O=[N+]([O-])c1cccc(Cl)c1Cl	4.62	4.07	–
Clc1ccc(-c2ccc(Cl)cc2Cl)cc1	6.21	–	–
CC(C)CC[C@@H](O)[C@](C)(O)[C@H]1CC[C@@]2(O)C3=CC(=O)[C@@H]4C[C@@H](O)[C@@H](O)C[C@]4(C)[C@H]3CC[C@]12C	6.42	–	–
Clc1ccc(Cl)c(-c2cc(Cl)ccc2Cl)c1	6.99	–	–
O=[N+]([O-])c1ccc(Cl)cc1	4.31	–	–
CCCCc1ccccc1	5.55	4.25	–
Clc1ccc(Cl)cc1	4.14	3.53	–
CCCCCCCCc1ccc(O)cc1	6.36	–	–
Cc1cccc([N+](=O)[O-])c1C	4.56	–	–
CCCCOCCOCCOCc1cc2c(cc1CCC)OCO2	5.29	–	–
ClCCCCl	2.61	–	–
CCOP(=S)(OCC)OP(=S)(OCC)OCC	9.15	–	–
O=S(=O)(c1ccc(Cl)cc1)c1cc(Cl)c(Cl)cc1Cl	4.71	–	–

— EPA's aquatic toxicity sets
